# Experimental data taken from ChEMBL document CHEMBL1127000, “Synthesis and excitatory amino acid pharmacology of some novel quinoxalinediones” (Bioorg Med Chem Lett, 1993).
# Experiments:
# [1] = biological target: Glutamate receptor ionotropic, AMPA (Rattus norvegicus, UniProt P19490+P19491+P19492+P19493)
# [2] = biological target: Glutamate receptor ionotropic, NMDA 1 (Rattus norvegicus, UniProt P35439); assay: Binding affinity for glycine site-NMDA receptor was determined by the ability to displace [3H]glycine in rat cortical membranes; type: cell membranes
# [3] = biological target: Glutamate receptor ionotropic, AMPA (Rattus norvegicus) (UniProt P19491+P19492+P19493+P19490); assay: Binding affinity for Ionotropic glutamate receptor AMPA was determined by the ability to displace [3H]AMPA in rat cortical membranes at 10 uM; type: cell membranes
# [4] = biological target: Glutamate receptor ionotropic, NMDA 1 (Rattus norvegicus) (UniProt P35439); assay: Binding affinity for glycine site-NMDA receptor was determined by the ability to displace [3H]glycine in rat cortical membranes at 10 uM; type: cell membranes
# [5] = biological target: Glutamate receptor ionotropic, NMDA 1 (Rattus norvegicus) (UniProt P35439); assay: Tested for the ability to displace [3H]glycine in rat cortical membranes at a concentration of 10 uM; type: cell membranes
SMILES,Ki [1],Ki [2],Displacement [3],Displacement [4],Displacement [5]
Cc1cc2[nH]c(=O)c(=O)n(Cc3nn[nH]n3)c2cc1C,–,–,52.4%,49.6%,–
Cc1cc2[nH]c(=O)c(=O)n(CC(=O)NS(C)(=O)=O)c2cc1C,–,–,49%,36%,–
Cc1ccc(S(=O)(=O)NC(=O)Cn2c(=O)c(=O)[nH]c3cc(C)c(C)cc32)cc1,–,–,28%,48%,–
COC(=O)Cn1c(=O)cnc2cc(C)c(C)cc21,–,–,4.6%,–,8%
Cc1cc2[nH]c(=O)c(=O)n(CC(=O)Nc3ccccc3)c2cc1C,–,–,5.2%,–,2.9%
O=c1[nH]c2cc(Cl)c(Cl)cc2n(Cc2nn[nH]n2)c1=O,–,–,58.6%,58.8%,–
O=C(O)Cn1c(=O)c(=O)[nH]c2cc(Cl)c(Cl)cc21,2.1 µM,0.11 µM,–,–,–
Cc1cc2[nH]c(=O)c(=O)n(C(C)C(=O)O)c2cc1C (centres undefined),–,–,13.9%,2.6%,–

# The remaining lines, values ahead:
Ki [1],Ki [2],Displacement [3],Displacement [4],Displacement [5],SMILES
0.7 µM,13.8 µM,–,–,–,Cc1cc2[nH]c(=O)c(=O)n(CC(=O)O)c2cc1C
8 µM,–,–,29.6%,–,Cc1cc2[nH]c(=O)c(=O)n(CCCC(=O)O)c2cc1C
–,–,28.5%,58.2%,–,Cc1cc2[nH]c(=O)c(=O)n(CCC(=O)O)c2cc1C
1.21 µM,5.28 µM,–,–,–,Cc1cc2[nH]c(=O)c(=O)n(CP(=O)(O)O)c2cc1C
